According to patent publication US20120329739A1 (priority 2010, published 2012):

Legend:
melan-A melanocytes = format: cell-based
[1] = tested on: hair graying-induced mice (Mitf^mi-vit); conditions: mouse, in vivo

O=c1c(-c2ccc(O)cc2)coc2c([C@@H]3O[C@H](CO)[C@@H](O)[C@H](O)[C@H]3O)c(O)ccc12 [puerarin, 8-C-β-D-glucopyranosyl-7-hydroxy-3-(4-hydroxyphenyl)-4H-1-benzopyran-4-one]
concentration dependence of melanin synthesis promoting effect (melan-A melanocytes): concentration-dependent
melanin content relative to the negative control group (melan-A melanocytes): the melanin content is higher than the negative control group
concentration dependence of the effect on hair melanin content [1]: the effect increases as the concentration of puerarin increases
